Laboratory results as given in US10295551B2, “Development and use of fluorescent probes of unbound bilirubin” (Alan Marc Kleinfeld, priority 2011, dated 2019).
Where two headings read alike, the source gives them in different places.

Columns and labels:
[1] = molecular target: T1, rI-FABP (SEQ ID NO: 3) variant L24P19 C7 K27K 24C, 14R 18L 24C 38V 60R 73F 106C 115R 117D (Rattus norvegicus, UniProt P02693, A74F/L39V/L73A/M19L/N25C/Q116R/R107C/V61R/Y118D/Y15R); assay: bilirubin binding to L24P19C7 24C probe; conditions: Table 5, acrylodan
T1 construct: made in house
T1 sequence (P02693 with tags, fused parts or gaps Y15R/M19L/N25C/L39V/V61R/L73A/A74F/R107C/Q116R/Y118D): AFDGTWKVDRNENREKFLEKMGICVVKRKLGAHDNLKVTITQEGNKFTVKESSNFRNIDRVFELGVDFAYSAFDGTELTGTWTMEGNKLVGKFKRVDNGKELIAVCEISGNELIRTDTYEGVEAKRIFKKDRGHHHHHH
Experimental: (§1) Also described are analytical/mathematical methods for calibrating and using the bilirubin probes. Bilirubin probes are calibrated to determine their binding affinity for bilirubin (dissociation constant Kd) under conditions, such as temperature, pH and solution composition, that correspond to samples in which it is desired to know the unbound bilirubin concentration. Binding isotherms are performed in aqueous buffer by measuring the change in fluorescence of the bilirubin probes in response to increasing bilirubin concentrations (“titration data”). The set of fluorescence responses at each bilirubin concentration are fitted with an appropriate equation (“calibration equation”) that correctly describes the fluorescence response as a function of the bilirubin concentration, the probe concentration, specific spectroscopic characteristics, and the Kd.
. […] The optimal probe performance was obtained with cysteine at positions 25 or 26.

[2] = molecular target: T2, rI-FABP (SEQ ID NO: 3) variant BL22P1 B11 - 33C, MGI - KR14 - 14R 18L 27A 33C 38V 60R 73F 106L 115R 117D (Rattus norvegicus, UniProt P02693, A74F/H34C/K101R/K126R/K17R/K21R/K28A/K30R/K38R/K47R/K51R/K89R/K8R/K93R/K95R/L39V/L73A/M19L/Q116R/R107L/V61R/Y118D/Y15R); assay type: binding
T2 construct: 6xHis (C); made in house
T2 sequence (P02693 with tags, fused parts or gaps with the stated changes): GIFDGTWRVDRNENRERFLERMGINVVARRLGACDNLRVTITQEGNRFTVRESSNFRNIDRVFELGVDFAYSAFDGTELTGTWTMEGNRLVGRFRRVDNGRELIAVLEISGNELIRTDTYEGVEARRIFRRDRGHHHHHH
Experimental: as §1

[3] = molecular target: T3, rI-FABP (SEQ ID NO: 3) variant BL22P1 B11 - 24C, MGI - KR14 - 14R 18L 24C 27A 38V 60R 73F 106L 115R 117D (Rattus norvegicus, UniProt P02693, A74F/K101R/K126R/K17R/K21R/K28A/K30R/K38R/K47R/K51R/K89R/K8R/K93R/K95R/L39V/L73A/M19L/N25C/Q116R/R107L/V61R/Y118D/Y15R); assay type: binding; conditions: Table 5, Alexa Fluor 680 C2-maleimide
T3 construct: 6xHis (C); made in house
T3 sequence (P02693 with tags, fused parts or gaps with the stated changes): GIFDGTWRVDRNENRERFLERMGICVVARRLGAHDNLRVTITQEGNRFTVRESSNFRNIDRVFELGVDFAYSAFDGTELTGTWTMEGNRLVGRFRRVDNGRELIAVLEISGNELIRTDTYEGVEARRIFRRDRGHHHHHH
Experimental: as §1

[4] = molecular target: T4, rI-FABP (SEQ ID NO: 3) variant BL22P1 B11 - 27C, MGI - KR14 - Y14R M18L K27C L38V V60R A73F R106L Q115R Y117D (Rattus norvegicus, UniProt P02693, A74F/K101R/K126R/K17R/K21R/K28C/K30R/K38R/K47R/K51R/K89R/K8R/K93R/K95R/L39V/L73A/M19L/Q116R/R107L/V61R/Y118D/Y15R); assay type: binding
T4 construct: 6xHis (C); made in house
T4 sequence (P02693 with tags, fused parts or gaps with the stated changes): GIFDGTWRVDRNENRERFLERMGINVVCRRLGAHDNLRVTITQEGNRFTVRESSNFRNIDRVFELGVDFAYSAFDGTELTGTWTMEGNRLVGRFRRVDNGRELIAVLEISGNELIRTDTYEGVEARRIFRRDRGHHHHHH
Experimental: as §1

[5] = molecular target: T5, rI-FABP (SEQ ID NO: 3) variant BL22P1 B11 - 54C, MGI - KR14 - 14R 18L 27A 38V 54C 60R 73F 106L 115R 117D (Rattus norvegicus, UniProt P02693, A74F/K101R/K126R/K17R/K21R/K28A/K30R/K38R/K47R/K51R/K89R/K8R/K93R/K95R/L39V/L73A/M19L/N55C/Q116R/R107L/V61R/Y118D/Y15R); assay type: binding; conditions: Table 5, Alexa Fluor 680 C2-maleimide
T5 construct: 6xHis (C); made in house
T5 sequence (P02693 with tags, fused parts or gaps with the stated changes): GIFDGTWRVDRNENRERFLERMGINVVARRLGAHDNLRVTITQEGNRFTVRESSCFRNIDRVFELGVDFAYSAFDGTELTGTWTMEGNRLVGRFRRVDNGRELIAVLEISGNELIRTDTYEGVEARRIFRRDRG
Experimental: as §1

[6] = molecular target: T6, rI-FABP (SEQ ID NO: 3) variant BL22P1 B11 - 26C, MGI - KR14 - Y14R M18L V26C K27A L38V V60R A73F R106L Q115R Y117D (Rattus norvegicus, UniProt P02693, A74F/K101R/K126R/K17R/K21R/K28A/K30R/K38R/K47R/K51R/K89R/K8R/K93R/K95R/L39V/L73A/M19L/Q116R/R107L/V27C/V61R/Y118D/Y15R); assay type: binding; conditions: Table 5, Alexa Fluor 680 C2-maleimide
T6 construct: 6xHis (C); made in house
T6 sequence (P02693 with tags, fused parts or gaps with the stated changes): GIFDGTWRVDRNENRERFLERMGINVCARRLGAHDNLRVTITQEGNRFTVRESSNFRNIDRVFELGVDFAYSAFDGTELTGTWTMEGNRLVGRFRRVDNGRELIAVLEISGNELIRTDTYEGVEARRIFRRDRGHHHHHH
Experimental: as §1

[7] = molecular target: T7, rI-FABP (SEQ ID NO: 3) variant L24P19C7-K27C, 14R 18L 27C 38V 60R 73F 106C 115R 117D (Rattus norvegicus, UniProt P02693, A74F/K28C/L39V/L73A/M19L/Q116R/R107C/V61R/Y118D/Y15R); assay: bilirubin binding to L24P19C7-K27C probe; conditions: Table 5, acrylodan
T7 construct: made in house
T7 sequence (P02693 with tags, fused parts or gaps Y15R/M19L/K28C/L39V/V61R/L73A/A74F/R107C/Q116R/Y118D): as the sequence (P02693 with tags, fused parts or gaps Y15R/M19L/N25C/L39V/V61R/L73A/A74F/R107C/Q116R/Y118D) above, with C24N, K27C counted along it
Experimental: as §1

[8] = Table 5, Alexa Fluor 680 C2-maleimide
[9] = Table 5, Alexa Fluor 750 C5-maleimide

Question: Which Kd [1] does the source give for `C=CC1=C(C)/C(=C/c2[nH]c(Cc3[nH]c(/C=C4\NC(=O)C(C)=C4C=C)c(C)c3CCC(=O)O)c(CCC(=O)O)c2C)NC1=O` [bilirubin] here?
Answer: Its Kd is 89 nM.

Question: And the Kd [2, 8]?
Answer: The Kd was 250 nM.

Question: What about the Kd [2, 9] of the same molecule?
Answer: The Kd was 120 nM.

Question: And the Kd [3]?
Answer: The Kd was 72 nM.

Question: And the Kd [4, 8]?
Answer: Its Kd is 70 nM.

Question: And the Kd [4, 9]?
Answer: Its Kd is 154 nM.

Question: And the Kd [5]?
Answer: The Kd was 160 nM.

Question: What about the Kd [6] of the same molecule?
Answer: The Kd was 197 nM.

Question: What about the Kd [7] of the same molecule?
Answer: The Kd was 242 nM.
